Assay results published in ChEMBL document CHEMBL5500403, “Discovery of a Double-Stapled Short Peptide as a Long-Acting HIV-1 Inactivator with Potential for Oral Bioavailability” (J Med Chem, 2024).
Calls of active or inactive are those of the source. No cut-off for these calls is given here. Bridge positions count the residues as written; N and C are the ends. Square brackets hold non-standard residues; d marks the D form. Peptide text beside a SMILES is read from it. S5 = C=CCCC[C@](C)(N)C(=O)O

Legend:
[1] = Cytotoxicity against human MT2 cells; format: toxicity, cell-based
[2] = Toxicity in Sprague-Dawley rat assessed as cell degeneration in liver at 50 mg/kg,iv administration measured after 14 days by hematoxylin and eosin staining based assay; format: organism-based; settings: in vivo, 336 h, time 14 day
[3] = Biodistribution in Sprague-Dawley rat testis assessed as fold increase in AUC at 1 mg/kg,iv administration measured after 12 days by LC-MS/MS analysis; format: ADME, organism-based; settings: in vivo, 288 h, time 12 day
[4] = system: Human immunodeficiency virus 1; experiment: Antiviral activity against HIV-1 IIIB infected in human MT2 cells assessed as inhibition of viral growth at 5 uM preincubation of compound with 20% HSA; format: functional, organism-based
[5] = Biodistribution in Sprague-Dawley rat brain at 1 mg/kg,iv administration measured upto 12 days by LC-MS/MS analysis; format: ADME, organism-based; settings: in vivo, 288 h, time < 12 day
[6] = Toxicity in female BALB/c mouse assessed as change in body weight at 100 mg/kg,iv administration measured upto 14 days; format: organism-based; settings: in vivo, 336 h, time < 14 day
[7] = Biodistribution in Sprague-Dawley rat lymph node assessed as fold increase in AUC at 1 mg/kg,iv administration measured after 12 days by LC-MS/MS analysis; format: ADME, organism-based; settings: in vivo, 288 h, time 12 day
[8] = Stability in rat plasma assessed as parent compound remaining at 1 ug/ml incubated for 1 hr by LC-MS/MS analysis; format: ADME, cell-free; settings: at 1 µg/mL, read-out: Stability
[9] = Toxicity in BALB/c mouse assessed as histopathological change in kidney at 100 mg/kg,iv administration measured after 14 days by hematoxylin and eosin staining based assay; format: organism-based; settings: in vivo, 336 h, time 14 day
[10] = Toxicity in Sprague-Dawley rat assessed as histopathological change in liver at 50 mg/kg,iv administration measured after 14 days by hematoxylin and eosin staining based assay; format: organism-based; settings: in vivo, 336 h, time 14 day
[11] = Plasma protein binding in rat by LC-MS/MS analysis; format: ADME, cell-free; settings: read-out: PPB (converted)
[12] = Half life in Sprague-Dawley rat plasma at 50 mg/kg,po administrated for 15 hrs by LC-MS/MS analysis; format: ADME, organism-based
[13] = system: Human immunodeficiency virus 1; experiment: Antiviral activity against T20-resistant HIV-1 NL4-3 harboring […] V38E and N42S mutant infected in human MT2 cells assessed as inhibition of viral growth pretreated with virus for 30 mins followed by infection with cells incubated for 72 hrs by ELISA; format: functional, organism-based
[14] = Elimination half life in Sprague-Dawley rat at 10 mg/kg,iv administration measured upto 9 days by LC-MS/MS analysis; format: ADME, organism-based; settings: in vivo, time < 9 day, read-out: beta t1/2
[15] = Toxicity in Sprague-Dawley rat assessed as histopathological change in kidney at 50 mg/kg,iv administration measured after 14 days by hematoxylin and eosin staining based assay; format: organism-based; settings: in vivo, 336 h, time 14 day
[16] = system: Human immunodeficiency virus 1; experiment: Antiviral activity against T20-resistant HIV-1 NL4-3 harboring […] N38A and N42T mutant infected in human MT2 cells assessed as inhibition of viral growth pretreated with virus for 30 mins followed by infection with cells incubated for 72 hrs by ELISA; format: functional, organism-based
[17] = Stability in Sprague-Dawley rat liver microsomes in presence of NADPH by LC-MS/MS analysis; format: ADME, Microsome
[18] = system: ACH-2 cell line; experiment: Cytotoxicity against chidamide reactivated human ACH-2 cell line infected with latent HIV-1 assessed as reduction in cell viability at 1.25 to 5 uM; format: functional, cell-based; settings: dose 1.25-5 µM
[19] = system: Human immunodeficiency virus 1; experiment: Binding affinity to cytoplasmic LLP1 domain of HIV-1 GP41 assessed as change in entropy by isothermal titration calorimetry
[20] = Biodistribution in Sprague-Dawley rat spleen assessed as fold increase in AUC at 1 mg/kg,iv administration measured after 12 days by LC-MS/MS analysis; format: ADME, organism-based; settings: in vivo, 288 h, time 12 day
[21] = Toxicity in Sprague-Dawley rat assessed as necrosis in liver at 50 mg/kg,iv administration measured after 14 days by hematoxylin and eosin staining based assay; format: organism-based; settings: in vivo, 336 h, time 14 day
[22] = Toxicity in BALB/c mouse assessed as change in serum creatinine level at 20 mg/kg,iv administration measured upto 6 days; format: organism-based; settings: in vivo, 144 h, time < 6 day
[23] = system: Human immunodeficiency virus 1; experiment: Antiviral activity against HIV-1 Bal-R5 assessed as reduction in viral growth by measuring p24 antigen level incubated for 2 hrs by ELISA; format: functional, organism-based; settings: Human immunodeficiency virus 1, Bal-R5, 2 h
[24] = Biodistribution in Sprague-Dawley rat brain assessed as fold increase in AUC at 1 mg/kg,iv administration measured after 12 days by LC-MS/MS analysis; format: ADME, organism-based; settings: in vivo, 288 h, time 12 day
[25] = system: Human immunodeficiency virus 1; experiment: Antiviral activity against HIV-1 IIIB assessed as reduction in viral growth by measuring p24 antigen level incubated for 2 hrs by ELISA; format: functional, organism-based; settings: Human immunodeficiency virus 1, IIIB
[26] = Apparent permeability in human Caco-2 cells at 5 uM; format: ADME, cell-based
[27] = system: proteinase K; experiment: Proteolytic stability assessed as proteinase K (unknown origin) mediated compound degradation by measuring parent compound remaining incubated for 4 hrs by LC-MS/MS analysis; format: ADME; settings: human, read-out: Stability
[28] = Biodistribution in Sprague-Dawley rat intestine assessed as fold increase in AUC at 1 mg/kg,iv administration measured after 12 days by LC-MS/MS analysis; format: ADME, organism-based; settings: in vivo, 288 h, time 12 day
[29] = Total clearance in Sprague-Dawley rat at 1 mg/kg,iv administration measured upto 9 days by LC-MS/MS analysis; format: ADME, organism-based; settings: in vivo, time < 9 day
[30] = Drug concentration in Sprague-Dawley rat plasma at 50 mg/kg,po administrated for 5 days by LC-MS/MS analysis; format: ADME, organism-based; settings: in vivo, 120 h, time 5 day
[31] = Toxicity in Sprague-Dawley rat assessed as inflammatory cell infiltration in liver at 50 mg/kg,iv administration measured after 14 days by hematoxylin and eosin staining based assay; format: organism-based; settings: in vivo, 336 h, time 14 day
[32] = MRT in Sprague-Dawley rat at 1 mg/kg,iv administration measured upto 9 days by LC-MS/MS analysis; format: ADME, organism-based; settings: in vivo, time < 9 day
[33] = Toxicity in female BALB/c mouse assessed as change in body weight at 20 mg/kg,iv administration measured upto 14 days; format: organism-based; settings: in vivo, 336 h, time < 14 day
[34] = Toxicity in Sprague-Dawley rat assessed as change in serum ALT level at 50 mg/kg,iv administration measured upto 6 days; format: organism-based; settings: in vivo, 144 h, time < 6 day
[35] = Toxicity in BALB/c mouse assessed as change in serum ALT level at 100 mg/kg,iv administration measured upto 6 days; format: organism-based; settings: in vivo, 144 h, time < 6 day
[36] = Volume of distribution at steady state in Sprague-Dawley rat at 10 mg/kg,iv administration measured upto 9 days by LC-MS/MS analysis; format: ADME, organism-based; settings: in vivo, 216 h, time < 9 day
[37] = Toxicity in Sprague-Dawley rat assessed as necrosis in kidney at 50 mg/kg,iv administration measured after 14 days by hematoxylin and eosin staining based assay; format: organism-based; settings: in vivo, 336 h, time 14 day
[38] = system: Human immunodeficiency virus 1; experiment: Antiviral activity against HIV-1 clinical isolate X4-89BZ167 assessed as reduction in viral growth by measuring p24 antigen level incubated for 2 hrs by ELISA; format: functional, organism-based; settings: Human immunodeficiency virus 1, clinical isolate X4-89BZ167, 2 h
[39] = Toxicity in BALB/c mouse assessed as change in serum ALT level at 20 mg/kg,iv administration measured upto 6 days; format: organism-based; settings: in vivo, 144 h, time < 6 day

CC(=O)NCC(=O)N[C@@]1(C)CCC/C=C\CCC[C@@](C)(C(=O)N[C@@H](Cc2ccc(O)cc2)C(=O)N[C@@H](CC(C)C)C(=O)N[C@@]2(C)CCC/C=C\CCC[C@@](C)(C(=O)N[C@@H](Cc3ccc(O)cc3)C(=O)N[C@@H](Cc3c[nH]c4ccccc34)C(N)=O)NC(=O)[C@H](CC(C)C)NC(=O)[C@H](CC(C)C)NC(=O)[C@H](CC(N)=O)NC2=O)NC(=O)[C@H](CC(C)C)NC(=O)[C@H](C)NC(=O)[C@H](CCC(=O)O)NC1=O (Ac-G[S5]EAL[S5]YL[S5]NLL[S5]YW-NH2; staple (Z) 2-6, 9-13)
CC50 [1]: 5070 nM | Activity [2]: Non-Toxic | fold change (FC) [3]: 15 | Activity [4]: Active | Drug uptake [5]: Active | Activity [6]: Non-Toxic | fold change (FC) [7]: 10 | remaining at 1 h, 1 ug/ml [8]: > 99% | Activity [9]: Non-Toxic | Activity [10]: Non-Toxic | fraction unbound [11]: 0.153 | half-life [12]: 41.2 h | IC50 [13]: 32.6 nM | half-life [14]: > 70 h | Activity [15]: Non-Toxic | IC50 [16]: 12.2 nM | Stability [17]: Stable | Activity [18]: Active | deltaS [19]: -70.2 cal/mol/deg | fold change (FC) [20]: 10 | Activity [21]: Non-Toxic | Activity [22]: Non-Toxic | EC50 [23]: 36700 nM | fold change (FC) [24]: 5 | EC50 [25]: 8.21 nM | Papp at 5 µM [26]: < 0.02 ×10⁻⁶ cm/s | remaining at 4 h [27]: 89.6% | fold change (FC) [28]: 10 | clearance [29]: 0.31 mL/min/kg | Drug uptake [30]: Active | Activity [31]: Non-Toxic | MRT [32]: 71.1 h | Activity [33]: Non-Toxic | Activity [34]: Non-Toxic | Activity [35]: Non-Toxic | Vdss [36]: 3.6489 L/kg | Activity [37]: Non-Toxic | EC50 [38]: 44.4 nM | Activity [39]: Non-Toxic
